Legend:
[1] = test system: subjects with moderate-to-severe plaque psoriasis; assay: PSSD symptom and sign scores, Example 2; type: in vivo, human
Source text: Secondary endpoints included additional change from baseline of Example 1 in PASI, IGA, and PSSD at Week 52, including the proportions of subjects that achieved PAST 90, PAST 100, an IGA score of cleared (0) or minimal (1), PSSD symptoms score=0, and PSSD signs score=0.

BD-2 = assay: Serum BD-2 immunoassay; type: in vivo, human; conditions: all treatment groups vs placebo; as early as Week 4
Experimental: To evaluate psoriasis relevant systemic biomarkers (Beta-defensin 2 (BD-2), IL-17A, IL-17F, and IL-22), protein concentrations were measured in serum using validated immunoassays. The IL-17A (Catalog #03-0159-00) and IL-17F (Catalog #03-0164-00) assays used are commercially available SMC™-based high sensitivity immunoassays produced by the EMD Millipore Corporation. The manufacturer's protocols were followed and analyzed on the Erenna® instrument platform except for the use of 11 μL Elution Buffer B. While the IL-22 assay is also based on the SMC™ platform and run on the Erenna instrument, the assay was developed internally as a coated plate-based assay. The development and optimization of the BD-2 assay was done on the Meso Scale Discovery on the electrochemiluminescence-based platform, a division of Meso Scale Diagnostics LLC (MSD). For all assays, concentration adjustments were made to values measuring below empirically defined LLOQ or empirically defined ULOQ values. Assay QC verified performance of generated standard curves (average concentration recovery & CV of technical replicates) and control samples (inter-assay plate agreement (CV)).
Serum levels of psoriasis disease biomarkers BD-2, IL-22, IL-17A, and IL-17F relative to baseline were analyzed in patients who received placebo or the compound of Formula (I) and compared to clinical response. […]

CC(=O)NCCCC[C@@H]1NC(=O)[C@H](Cc2c[nH]c3c(C)cccc23)NC(=O)[C@H]([C@@H](C)O)NC(=O)[C@H](CC(N)=O)NC(=O)[C@@H](NC(C)=O)C(C)(C)SSC(C)(C)[C@@H](C(=O)N[C@@H](Cc2ccc(OCCN)cc2)C(=O)N[C@@H](Cc2ccc3ccccc3c2)C(=O)NC2(C(=O)N[C@@H](CCC(=O)O)C(=O)N[C@@H](CC(N)=O)C(=O)N[C@@H](Cc3cccnc3)C(=O)N(C)CC(N)=O)CCOCC2)NC1=O [IL-23 receptor antagonist peptide, Ac-[Pen]*-N-T-[W(7-Me)]-[Lys(Ac)]-[Pen]*-Phe[4-(2-aminoethoxy)]-[2-Nal]-[THP]-E-N-[3-Pal]-Sarc-NH2 (*[Pen]-[Pen]* formdisulfidebond)]
Subjects Achieving PSSD Sign Score 0 at Week 52 ([1]; 50 mg QD, Subjects w/Baseline PSSD Sign Score ≥1 (Table 26, second block)): 5 (11.6%)
Subjects achieving PSSD Sign Score = 0 at Week 52 ([1]; 100 mg QD, subjects with Baseline PSSD Sign Score ≥1): 6 (14.0%)
BD-2 serum levels (BD-2): Statistically significant reduction
